Data from patent US10952940B2, “Reagents and methods for mineralization of tooth enamel” (UNIVERSITY OF WASHINGTON, priority 2016, dated 2021).
Where “and” joins values, the source holds several entries; their conditions need not be identical. Equal values may be shown once. Entries after “also recorded” stand apart in the source; their conditions may differ. Where no end group is shown, it is not given here.

How the values were obtained:
[1] = Mineralization in aqueous solution (kinetics)
Method: Fast kinetics refers to fast mineral formation, such as immediate mineral formation, while slow mineral formation refers to mineral formation over a period of time, such as about 5 minutes to about 1 hour. In some embodiments, a first biomineralizing peptide having faster kinetics can be used in combination with a second biomineralizing peptide having slower kinetics.
The ADP5 peptide was generated using a procedure that was developed for designing protein derived peptides as described previously. Briefly, 7-AA and 12-AA long hydroxyapatite binding peptides (HABPs) were experimentally selected using the c7c- and 12-phage libraries (New England BioLabs Inc., Ipswich, Mass., USA), respectively. Next, the 180 amino acid-long human amelogenin protein (rM180) was divided into 7-AA and 12-AA long segments and each segment was compared with all of the 155 experimentally selected HABPs. The regions with high similarity scores from 7-AA and 12-AA long segments were overlapped and those coinciding high similarity regions were chosen as the putative strong binding regions. These computationally determined high similarity regions were then refined to design the ADPs by protein structure prediction, Ca^2+ ion-binding domain predictions, and meta-functional signature analyses. […]

[2] = Solid binding affinity to HAp
Description: The ADP5 peptide was generated using a procedure that was developed for designing protein derived peptides as described previously. Briefly, 7-AA and 12-AA long hydroxyapatite binding peptides (HABPs) were experimentally selected using the c7c- and 12-phage libraries (New England BioLabs Inc., Ipswich, Mass., USA), respectively. Next, the 180 amino acid-long human amelogenin protein (rM180) was divided into 7-AA and 12-AA long segments and each segment was compared with all of the 155 experimentally selected HABPs. The regions with high similarity scores from 7-AA and 12-AA long segments were overlapped and those coinciding high similarity regions were chosen as the putative strong binding regions. These computationally determined high similarity regions were then refined to design the ADPs by protein structure prediction, Ca^2+ ion-binding domain predictions, and meta-functional signature analyses. Two separate assays were developed to characterize the ADPs: Solid binding affinity to HAp and mineralization in aqueous solution. […] Because of this property, ADP5 has been used for developing mineralization on human teeth. […] For this, we eliminated the six amino acids from the amino end and alanine from the carboxyl end, while keeping the charged amino acids intact that are thought to initiate mineralization. […]

[3] = Layer-by-layer mineralization by peptide in solution on white spot lesion; set-up: species or system human; details: 0.8 mM sADP5
Method: On extracted human tooth, the entire tooth was painted with lacquer (nail polish) except a 3 mm by 3 mm window on enamel. This window was subjected to etching then remineralization. The following steps were then carried out:
• 1. Etch enamel surface aqueous solution of 2.2 mM K2HPO4, 2.2 mM CaCl2, and 50 mM acetic acid at pH 4.5 for 2 weeks, changing solution every other day, to create white spot lesion (WSL) […]. • 2. Soak in 100 ml of 0.8 mM sADP5 solution at 37 C for 10 minutes then blot dry with tissue paper. • 3. Soak in 600 ml of 4.8 mM CaCl2+2.8 mM K2HPO4 in pH 7.4 Tris buffer at 37 C for 1 hour. • 4. Drip rinse with DI water for 20 seconds then blot dry with Kimwipe™ sheet. • 5. Repeat steps 3-4 to add more mineralized layers. Results & Discussions—

[4] = Side-by-side comparison of peptide-mineralized whitening versus commercial whitening products; details: Image-J analysis of optical images; strip 30 mins, gel 10 minutes, peptide 0.8 mM 10 mins + artificial saliva 1 hr
Method: The whitening products were used according to the manufacturers' directions. For the strip, the product was applied to the pre-stained tooth for 30 mins and peeled off. Then the samples were rinsed with water for 1 min to clean the surface of the teeth from any residues from the strip. In the case of the second product, the gel was applied to the pre-stained teeth for 10 minutes and then cleaned by rinsing with water for 1 minute. In the peptide-remineralization case, the stained teeth were incubated with sADP5 (SEQ ID NO:24) peptide solution (0.8 mM) for 10 mins., followed by soaking in the artificial saliva (for 1 hr) that was supplemented with 4.8 mM Ca and 2.9 mM PO4 ionic concentrations.
The samples treated with whitening products or with the remineralization method were prepared for optical imaging for color change and also for surface characterization with scanning electron microscopy. The images of the teeth samples were recorded using a light optical microscopy technique under compact fluorescent light. The recorded images were digitized and examined with Image-J Line (NIH Software) for quantitative analysis of the color change (a, d, f and h). The cross-sectioned samples were prepared for SEM examination of the internal as well as surface structure of the teeth, and the results are shown in FIG. 15 (e, g, and i, plus their inset images).

[5] = 0.8 mM sADP5 10 minutes, then Ca/PO4 1 hour at 37° C.
Method: Extracted human teeth samples were collected from University of Washington clinics. The enamel tissue was cut out the using low speed saw on a perpendicular direction to the underlying dentin tubules. Next, the smear layer on the dentin was removed by polishing down to 0.1 um finish and etching for 10 seconds using 10% citric acid solution. For remineralization treatment, samples were soaked into 200 ul of 0.8 mM sADP5 peptide (SEQ ID NO:24) solution and incubated for 10 minutes at 37° C. Next, excess peptide was removed by blotting and the sample was soaked in 24 mM Tris Buffer solution supplemented with 4.8 mM Ca and 2.88 mM PO4 ions for 1 hour at 37° C. Following the remineralization treatment, samples were rinsed with deionized water, dried in air and characterized with scanning electron microscope

| Substance | mineralization kinetics [1] | binding to HAp [2] | Ca/P of new mineral layers ([3]; after 4 repetitions) | number of distinctive mineral layers formed ([3]; after 4 repetitions of the mineralization steps) | increase of tooth shade above tea-stained baseline [4] | depth of mineral penetration into tubules [5] | occlusion of exposed dentin tubules [5] |
| --- | --- | --- | --- | --- | --- | --- | --- |
| (HPP(S/T)HTLQPHHH(L/I)PVVPAQQPV(A/I)PQQPMMPVPG(H/Q)HSMTP(T/I)QH)1-10 [ADP7] | slow kinetic profile |  |  |  |  |  |  |
| (PGYIN(L/F)SYE(K/N)SHSQAIN(T/V)DRTA)1-10 [ADP5] | fastest mineralization kinetics; also recorded: fast kinetic profile | one of the weakest binding peptides |  |  |  |  |  |
| (SYEKSHSQAINTDRT)1-10 (also: repeated 1-10 times) [sADP5] |  |  | 1.43+0.15 | 4 | 4.64% and 4.6% | 2-3 um | successfully occluded |
